Data reported in US7115621B2, “Chemical compounds” (Lilly Icos LLC, priority 2001, dated 2006).

What was measured:
[1] = target: recombinant human PDE5 (Homo sapiens, UniProt O76074); assay: Inhibitory effect on cGMP-PDE, one-step assay, human recombinant PDE5; type: biochemical; conditions: Table 1, Examples
Protocol: The compounds of structural formula (I) were tested for an ability to inhibit PDE5. The ability of a compound to inhibit PDE5 activity is related to the IC50 value for the compound, i.e., the concentration of inhibitor required for 50% inhibition of enzyme activity. The IC50 value for compounds of structural formula (I) were determined using recombinant human PDE5.
Recombinant production of human PDE1B, PDE2, PDE4A, PDE4B, PDE4C, PDE4D, PDE5, and PDE7 was carried out similarly to that described in Example 7 of U.S. Pat. No. 5,702,936, incorporated herein by reference, except that the yeast transformation vector employed, which is derived from the basic ADH2 plasmid described in Price et al., Methods in Enzymology, 185, pp. 308–318 (1990), incorporated yeast ADH2 promoter and terminator sequences and the Saccharomyces cerevisiae host was the protease-deficient strain BJ2-54 deposited on Aug. 31, 1998 with the American Type Culture Collection, Manassas, Virginia, under accession number ATCC 74465. Transformed host cells were grown in 2×SC-leu medium, pH 6.2, with trace metals, and vitamins. After 24 hours, YEP medium-containing glycerol was added to a final concentration of 2×YET/3% glycerol. Approximately 24 hr later, cells were harvested, washed, and stored at −70° C.
Phosphodiesterase activity of the preparations was determined as follows. PDE assays utilizing a charcoal separation technique were performed essentially as described in Loughney et al. (1996). In this assay, PDE activity converts [32P]cAMP or [32P]cGMP to the corresponding [32P]5′-AMP or [32P]5′-GMP in proportion to the amount of PDE activity present. The [32P]5′-AMP or [32P]5′-GMP then was quantitatively converted to free [32P]phosphate and unlabeled adenosine or guanosine by the action of snake venom 5′-nucleotidase. […] The assay was performed at 30° C. in a 100 μL reaction mixture containing (final concentrations) 40 mM Tris HCl (pH 8.0), 1 μM ZnSO4, 5 mM MgCl2, and 0.1 mg/mL bovine serum albumin (BSA). PDE enzyme was present in quantities that yield <30% total hydrolysis of substrate (linear assay conditions). The assay was initiated by addition of substrate (1 mM [32P]cAMP or cGMP), and the mixture was incubated for 12 minutes. Seventy-five (75) μg of Crotalus atrox venom then was added, and the incubation was continued for 3 minutes (15 minutes. total). The reaction was stopped by addition of 200 μL of activated charcoal (25 mg/mL suspension in 0.1 M NaH2PO4, pH 4). After centrifugation (750×g for 3 minutes) to sediment the charcoal, a sample of the supernatant was taken for radioactivity determination in a scintillation counter and the PDE activity was calculated.
Cell pellets (29 g) were thawed on ice with an equal volume of Lysis Buffer (25 mM Tris HCl, pH 8, 5 mM MgCl2, 0.25 mM DTT, 1 mM benzamidine, and 10 μM ZnSO4). Cells were lysed in a Microfluidizer® (Microfluidics Corp.) using nitrogen at 20,000 psi. The lysate was centrifuged and filtered through 0.45 μm disposable filters. The filtrate was applied to a 150 mL column of Q SEPHAROSE® FastFlow (Pharmacia). The column was washed with 1.5 volumes of Buffer A (20 mM Bis-Tris Propane, pH 6.8, 1 mM MgCl2, 0.25 mM DTT, 10 μM ZnSO4) and eluted with a step gradient of 125 mM NaCl in Buffer A followed by a linear gradient of 125–1000 mM NaCl in Buffer A. Active fractions from the linear gradient were applied to a 180 mL hydroxyapatite column in Buffer B (20 mM Bis-Tris Propane (pH 6.8), 1 mM MgCl2, 0.25 mM DTT, 10 μM ZnSO4, and 250 mM KCl). After loading, the column was washed with 2 volumes of Buffer B and eluted with a linear gradient of 0–125 mM potassium phosphate in Buffer B. Active fractions were pooled, precipitated with 60% ammonium sulfate, and resuspended in Buffer C (20 mM Bis-Tris Propane, pH 6.8, 125 mM NaCl, 0.5 mM DTT, and 10 μM ZnSO4). The pool was applied to a 140 mL column of SEPHACRYL® S-300 HR and eluted with Buffer C. Active fractions were diluted to 50% glycerol and stored at −20° C. […]

[2] = target: T1, PDE5 (bovine aorta) (Bos taurus, UniProt Q28156); assay: Inhibitory effect on cGMP-PDE, one-step assay, enzyme from bovine aorta; type: biochemical; conditions: Table 1, Examples; footnote 1) vs. bovine aorta
T1 construct: from tissue; host or cells: bovine aorta

SMILES	IC50 [1]	melting point	IC50 [2]
CN(C)C(=O)[C@H]1Cc2c([nH]c3ccccc23)[C@@H](c2ccc3c(c2)OCO3)N1C(=O)/C=C/c1ccccc1 [Example 1, (1R,3R)-1-benzo[1,3]dioxol-5-yl-2-(3-phenylacryloyl)-2,3,4,9-tetrahydro-1H-β-carboline-3-carboxylic acid dimethylamide]	44 nM	175 to 178 °C	–
CCCCNC(=O)N1[C@@H](c2cccnc2)c2[nH]c3ccccc3c2C[C@H]1C(=O)OCC [Example 4]	–	–	200 nM
COC(=O)[C@@H]1Cc2c([nH]c3ccccc23)[C@H](c2ccc3c(c2)OCO3)N1C [Example 6]	230 nM	–	–
CCCNC(=O)[C@H]1Cc2c([nH]c3ccccc23)[C@@H](c2ccc3c(c2)OCO3)N1C(C)=O [Example 8, (1R)-(+)-2-acetyl-1-benzo[1,3]dioxol-5-yl-2,3,4,9-tetrahydro-1H-β-carboline-3-carboxylic acid propylamide]	502 nM	163 to 165 °C	–
CC(=O)N1[C@H](c2ccc3c(c2)OCO3)c2[nH]c3ccccc3c2C[C@@H]1C(=O)N1CCOCC1 [Example 9, (1R)-(+)-1-[benzo[1,3]dioxol-5-yl-3-(morpholine-4-carbonyl)-1,3,4,9-tetrahydro-β-carbolin-2-yl]-ethanone]	261 nM	–	–
CCCCNC(=O)[C@H]1Cc2c([nH]c3ccccc23)[C@@H](c2ccc3c(c2)OCO3)N1C(=O)/C=C/c1ccccc1 [Example 11, (1R,3R)-(+)-1-benzo[1,3]dioxol-5-yl-2-(3-phenylacryloyl)-2,3,4,9-tetrahydro-1H-β-carboline-3-carboxylic acid butylamide]	629 nM	114 to 117 °C	–
CNC(=O)[C@H]1Cc2c([nH]c3ccccc23)[C@@H](c2ccc3c(c2)OCO3)N1C(=O)/C=C/c1ccc(Cl)cc1 [Example 13]	420 nM	–	–

Second part, the compound after the results:

IC50 [1]	melting point	IC50 [2]	SMILES
241 nM	175 to 187 °C	–	COC(=O)[C@H]1Cc2c([nH]c3ccccc23)[C@@H](c2ccc3c(c2)OCO3)N1C(=O)Oc1ccc([N+](=O)[O-])cc1 [Example 3, (−)-(1R,3R)-1-Benzo[1,3]dioxol-5-yl-1,3,4,9-tetrahydro-beta-carboline-2,3-dicarboxylic acid 3-methyl ester 2-(4-nitrophenyl)ester]
–	–	490 nM	COC(=O)CN1[C@@H](c2ccc(OC)cc2)c2[nH]c3ccccc3c2C[C@H]1C(=O)NCc1ccccc1 [Example 5]
–	–	1000 nM	COc1ccc([C@@H]2c3[nH]c4ccccc4c3C[C@@H](C(=O)NCc3ccccc3)N2C(C)=O)cc1 [Example 7]
30 nM	–	–	CNC(=O)[C@H]1Cc2c([nH]c3ccccc23)[C@@H](c2ccc3c(c2)OCO3)N1C(=O)/C=C/c1ccccc1 [Example 12]
